The structures appear in SMILES notation.

The nature of one series: Acute toxicity test. The conditions noted are these: rat, in vivo; oral, male rats. The source says: Each of the compounds of the present invention was orally administered to male rats to determine the acute toxicity.
Series [1] concerns conjunctiva of the animal. Nature of the series: Local anesthesia activity test. It is filed as in vivo, guinea pig. Particulars: 0.1% solution, 3 drops on conjunctiva, 60 stimulations in 30 minutes, four guinea pigs; saline control 0. On the procedure: Guinea pig having about 300 to 350 g of body weight were used as the test animals. Three (3) drops of 0.1%-test compound dissolved in physiological saline solution were administered through 1/4-sized injection needle on the surface of conjuctiva of the test animal. After the administration of the test solution, the conjunctiva of the animal was stimulated ten times in every 5 minutes by a stylet (mandrine) or 1/4-sized injection needle, the stimulations were repeated 6 times within 30 minutes, thus 60 stimulations were given to the conjunctiva of the animal. The number of disappearing of eye-closing-reflexes, during 30 minutes after the administration of the test solution was counted as to the effectiveness of the local anesthesia activity. In this test, four (4) guinea pigs were used as one test group, and the test solution containing 0.1% of the test compound was applied to one test group, and physiological saline solution was, on the other hand, applied to another test group of the guinea pigs as the control.

In a further series the target is ileum of a guinea pig (Cavia porcellus, UniProt P31389). Kind of series: cell-based. The conditions noted are these: histamine-induced retraction of guinea pig ileum, test compound 10^-6 g/ml, 36° C., Van Rossam method; for Kb: read-out: pA2 (converted). The protocol: Pharmacological tests of the present compounds were conducted according to said method as follows:
A male guinea pig having 300 to 500 g body weight is killed by blood letting. An ileum having length of 15 cm being enucleated from the ileocecal region is dipped into Tyrode's solution (which is prepared from 8.0 g of NaCl, 0.2 g of KCl, 0.2 g of CaCl2, 1.0 g of glucose, 1.0 g of NaHCO3, 0.065 g of NaHPO4.2H2 O and 0.2135 g of MgCl2.6H2 O to make 1000 ml in total volume by adding water). Then the tissue of ileum is cut to a length of 2.5 to 3.0 cm and suspended in an organ bath filled with 30 ml of Tyrode's solution. The organ bath is kept a temperature of 36° C. while blowing a mixed gas consisting of 5% of CO2 and 95% of O2 into the bath. 10 Minutes after the blowing, 10^-6 M of histamine is added to the bath to examine the sensitivity of the tissue and a reaction curve (control) with respect to the dosage of histamine is obtained. After the dosage of histamine-reaction curve (control) become constant 10^-6 g/ml of a compound to be tested is added to the bath and further histamine is added 5 minutes later to obtain dosage-reaction curve. Retraction of the ileum is recorded on a pen-recorder through an isotonic transducer (TD-112S manufactured by Nihon Koden).

A further series has as its system Male mice of ddy-strain. Kind of series: Halothane anesthesia increasing activity. It is filed as in vivo, mouse. Particulars: oral, 32 mg/kg, 1 hour before 4% Halothane for 3 minutes, male ddy mice; saline control 4.2. On the procedure:
Male mice of ddy-strain having about 20 g body weight were used. One test group consists of 10 mice. An aqueous Gummi Arabicum suspension of test compound (80 mg of a compound to be tested and 1 g of Gummi Arabicum/100 ml of physiological NaCl solution) was administered orally to each mouse at the dosage of 32 mg of test compound/kg body. One hour after the administration, each mouse was placed in gas respiration chamber (13×13×24 cm) and oxygen gas containing 4% of Halothane [2-bromo-2-chloro-1,1,1-trifluoroethane] was blown into the chamber at the velocity of 2 l/min for 3 minutes. A mouse anaesthetized was taken out from the chamber and the time between the introduction of anesthesia to waking was measured by righting reflex as the index. To mice of control group, 1% Gummi Arabicum aqueous physiological solution was orally administered at the dosage of 0.1 ml/kg body. (Reference: M. J. Turnbull and J. W. Watkins: Br. J. Pharmacol., 58, 27-35 (1976))

ileum of a guinea pig, sequence (P31389 whole entry): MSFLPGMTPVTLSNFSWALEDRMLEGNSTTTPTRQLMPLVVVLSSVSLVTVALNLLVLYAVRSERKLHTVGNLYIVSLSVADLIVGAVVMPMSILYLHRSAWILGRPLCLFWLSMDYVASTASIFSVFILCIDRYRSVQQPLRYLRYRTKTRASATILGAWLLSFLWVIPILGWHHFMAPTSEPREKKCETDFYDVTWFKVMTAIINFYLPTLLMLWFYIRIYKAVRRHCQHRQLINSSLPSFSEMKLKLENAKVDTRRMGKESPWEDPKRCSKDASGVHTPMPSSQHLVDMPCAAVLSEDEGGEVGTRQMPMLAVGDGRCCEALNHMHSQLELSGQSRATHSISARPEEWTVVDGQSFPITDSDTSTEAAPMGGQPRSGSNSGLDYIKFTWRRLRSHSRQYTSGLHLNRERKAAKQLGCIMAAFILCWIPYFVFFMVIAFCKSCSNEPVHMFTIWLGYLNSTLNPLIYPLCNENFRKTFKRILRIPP

In “Acute toxicity test”, `C[N+]1(CC(O)COc2cccc3c2CCC(=O)N3)CCC(c2ccccc2)CC1` (stereo not shown) [Compound 11, 4-Phenyl-1-[2-hydroxy-3-(2-oxo-1,2,3,4-tetra-hydroquinolin-5-yloxy)propyl]-1-methyl-piperidium iodide] had an LD50 above 1000 mg/kg. Moreover, the “Number of eye-closing reflex (number of disappearing of eye-closing-reflexes during 30 minutes)” value (“Number of eye-closing reflex” below) in series [1] was determined as 27.6. Also, the Kb at ileum of a guinea pig is 5.89 nM. The “Time (minutes) between introduction of anesthesia and waking (righting reflex)” value (from here on “Time (minutes) between introduction”) with Male mice of ddy-strain was 5.2 min.
The matching figures for `CN1C(=O)CCc2c(OCC(O)CN3CCC(Cc4ccccc4)CC3)cccc21.O=C(O)C(=O)O` (stereo not shown) [Compound 10, 1-Methyl-5-[2-hydroxy-3-(4-benzyl-1-piperidyl)-propoxy]-3,4-dihydrocarbostyril monooxalate]: above 1000 mg/kg, 37.3, 0.24 nM and 4.8 min.
The matching figures for `CN1C(=O)CCc2ccc(OCCCN3CCC(Cc4ccccc4)CC3)cc21.O=C(O)C(=O)O` [Compound 2, 1-Methyl-7-[3-(4-benzyl-1-piperidyl)propoxy]-3,4-dihydrocarbostyril monooxalate]: above 1000 mg/kg, 58.0, 0.02 nM and 4.9 min.
With `CC(=O)C1(c2ccccc2)CCN(CCCOc2ccc3c(c2)NC(=O)CC3)CC1` [Compound 15, 7-{3-[4-(4-Acetyl-4-phenyl)-1-piperidyl]}-3,4-dihydrocarbostyril], in the series “Acute toxicity test”, the 50% lethal dose (LD50) was above 1000 mg/kg. In addition, the “Number of eye-closing reflex” value in series [1] was found to be 35.5. The pA2 at ileum of a guinea pig turned out to be 9.92. In the series on Male mice of ddy-strain, the “Time (minutes) between introduction” value came to 4.7 min.
The compound `O=C1CCc2c(cccc2OCCCN2CCC(Cc3ccccc3)CC2)N1` [Compound 1, 5-[3-(4-Benzyl-1-piperidyl)propoxy]-3,4-dihydrocarbostyril] yielded an LD50 in “Acute toxicity test” above 1000 mg/kg. Besides, the “Number of eye-closing reflex” value in series [1] amounted to 55.1. In addition, the Kb on ileum of a guinea pig was 0.302 nM. For the same compound, the “Time (minutes) between introduction” value with Male mice of ddy-strain worked out at 4.7 min.
Take `Cc1cc(=O)[nH]c2cc(OCCCN3CCN(Cc4ccccc4)CC3)ccc12` [E, 4-Methyl-7-[3-(4-benzyl-piperazin-1-yl)-propoxy]-2-oxo-1,2-dihydroquinoline, reference compound]: the “Number of eye-closing reflex” value in series [1] was determined as 5.2.
On the same count and under the same terms, the result for `Cc1cc(=O)n(C)c2ccc(OCCCN3CCN(Cc4ccc(Cl)cc4)CC3)cc12` [D, reference compound] reads 3.8.
In the case of `Cc1cc(=O)[nH]c2cc(OCCCN3CCC(Cc4ccccc4)CC3)ccc12` [Compound 5, 4-Methyl-7-[3-(4-benzyl-1-piperidyl)propoxy]-carbostyril], the LD50 in “Acute toxicity test” is above 1000 mg/kg. Also, the Kb at ileum of a guinea pig was 0.257 nM. Further, in the series with Male mice of ddy-strain, the “Time (minutes) between introduction” value was 4.6 min.
For the compound `O=c1cc(-c2ccccc2)c2ccc(OCCCN3CCC(c4ccccc4)CC3)cc2[nH]1` [Compound 13, 4-Phenyl-7-[3-(4-phenyl-1-piperidyl)propoxy]-carbostyril monohydrochoride], the LD50 in “Acute toxicity test” was above 1000 mg/kg. In addition, the “Number of eye-closing reflex” value in series [1] came out at 28.0. For the same compound, the Kb on ileum of a guinea pig was 0.186 nM. Further, the “Time (minutes) between introduction” value in the series on Male mice of ddy-strain is 5.6 min.
`O=C1CCc2c(OCC(O)CN3CCC(Cc4ccccc4)CC3)ccc(Br)c2N1` (stereo not shown) [Compound 8, 8-Bromo-5-[2-hydroxy-3-(4-benzyl-1-piperidyl)-propoxy]-3,4-dihydrocarbostyril] registered an LD50 in the series “Acute toxicity test” above 1000 mg/kg. The Kb on ileum of a guinea pig was 4.07 nM. Also, in the series with Male mice of ddy-strain, the “Time (minutes) between introduction” value stood at 5.5 min.
For `Cc1cc(=O)n(C)c2cc(OCCCN3CCN(Cc4ccc(Cl)cc4)CC3)ccc12` [C, 1,4-Dimethyl-7-{3-[4-(4-chlorobenzyl)-1-piperazin-1-yl]propoxy}-2-oxo-1,2-dihydroquinoline, reference compound], the “Number of eye-closing reflex” value in series [1] came out at 2.8.
The compound `O=C1CCc2ccc(OCC(O)CN3CCC(c4ccccc4)CC3)cc2N1` (stereo not shown) [Compound 9, 7-[2-Hydroxy-3-(4-phenyl-1-piperidyl)propoxy]-3,4-dihydrocarbostyril] gave an LD50 in “Acute toxicity test” above 1000 mg/kg. The “Number of eye-closing reflex” value in series [1] came out at 29.2. Further, the Kb at ileum of a guinea pig is 0.129 nM. In the series with Male mice of ddy-strain, the “Time (minutes) between introduction” value amounted to 4.1 min.
In turn, `CN1C(=O)CCc2c(OCCCN3CCC(Cc4ccccc4)CC3)cccc21.Cl` [Compound 4, 1-Methyl-5-[3-(4-benzyl-1-piperidyl)propoxy]-3,4-dihydrocarbostyril monohydrochloride] registered an LD50 in “Acute toxicity test” above 1000 mg/kg. Moreover, the Kb at ileum of a guinea pig is 0.01 nM. Moreover, the “Time (minutes) between introduction” value with Male mice of ddy-strain stood at 4.2 min.

What is called LD50 is the dose at which mortality reaches 50%. Low readings indicate a more toxic substance, high ones a less toxic substance. As usually defined, the pA2 is the negative logarithm of the molar antagonist concentration that doubles the agonist concentration needed for the same response. A high value points to higher antagonist potency.

The values above are taken from patent US4482560A, “Carbostyril derivatives, and antihistaminic agents containing the same” (priority 1979, dated 1984).
